Tests used:
dengue virus type 2 = assay: Antiviral activity against DENV2 16681 infected in human Huh-7 cells assessed as reduction in viral replication at MOI of 1 to 5 incubated for 3 days; format: functional, organism-based; details: Dengue virus, 16681, Huh-7, 72 h
Hepatitis C virus = assay: Antiviral activity against HCV genotype 1b infected in human Huh7 cells incubated for 3 days and measured by luciferase reporter gene assay; format: functional, organism-based, Hepacivirus hominis; details: subtype 1b, Huh-7, 72 h
Chikungunya virus = assay: Antiviral activity against CHIKV S27 infected in human Huh-7 cells at MOI of 0.25 incubated for 2 days and measured by ATPLite assay; format: functional, organism-based; details: S27, Huh-7, 48 h
[1] = Cytotoxicity against human Huh-7 cells measured after 2 days by ATPLite-based viability assay; format: toxicity, cell-based; details: time 2 day
Sindbis virus = assay: Antiviral activity against SINV AR339 infected in human Huh-7 cells measured by cytopathic effect inhibition assay; format: functional, organism-based; details: AR339, Huh-7
[2] = AUClast in male C57BL/6 mouse at 50 mg/kg, po measured by LC-MS/MS analysis; format: ADME, organism-based; details: in vivo
[3] = Metabolic stability in human liver microsomes assessed as intrinsic clearance preincubated for 5 mins followed by addition of NADPH and assessed as intrinsic clearance by LC-MS/MS analysis; format: ADME, Microsome; details: read-out: CLH
[4] = AUClast in male C57BL/6 mouse at 50 mg/kg, sc measured by LC-MS/MS analysis; format: ADME, organism-based; details: in vivo
[5] = Tmax in male C57BL/6 mouse at 50 mg/kg, po measured by LC-MS/MS analysis; format: ADME, organism-based; details: in vivo
[6] = Stability of compound in simulated gastric fluid incubated for 6 hrs and assessed as half-life at 1 uM by LC-MS/MS analysis; format: ADME
[7] = Stability of compound in fasted state simulated intestinal fluid incubated for 6 hrs and assessed as half-life at 1 uM by LC-MS/MS analysis; format: ADME
[8] = Cmax in male C57BL/6 mouse at 50 mg/kg, po measured by LC-MS/MS analysis; format: ADME, organism-based; set-up: dose 50 mg/kg, route po; details: in vivo
[9] = Stability of compound in human plasma assessed as half-life incubated for 24 hrs and assessed as half-life at 1 uM by LC-MS/MS analysis; format: ADME, cell-free
[10] = Cmax in male C57BL/6 mouse at 50 mg/kg, sc measured by LC-MS/MS analysis; format: ADME, organism-based; set-up: dose 50 mg/kg, route sc; details: in vivo
[11] = Tlast in male C57BL/6 mouse at 50 mg/kg, sc measured by LC-MS/MS analysis; format: ADME, organism-based; details: in vivo
[12] = Metabolic stability in mouse liver microsomes preincubated for 5 mins followed by addition of NADPH and assessed as intrinsic clearance by LC-MS/MS analysis; format: ADME, Microsome; details: read-out: CLH
[13] = Tmax in male C57BL/6 mouse at 50 mg/kg, sc measured by LC-MS/MS analysis; format: ADME, organism-based; details: in vivo
[14] = Stability of compound in simulated gastric fluid incubated for 6 hrs at 1 uM and assessed as compound remaining after 6 hrs by LC-MS/MS analysis; format: ADME; details: read-out: Stability
[15] = Stability of compound in mouse plasma assessed as half-life incubated for 24 hrs and assessed as half-life at 1 uM by LC-MS/MS analysis; format: ADME, cell-free
[16] = Tlast in male C57BL/6 mouse at 50 mg/kg, po measured by LC-MS/MS analysis; format: ADME, organism-based; details: in vivo

Row | Compound | EC50 (dengue virus type 2) | EC50 (Hepatitis C virus) | EC50 (Chikungunya virus) | CC50 at 48 h [1] | EC50 (Sindbis virus) | other results
1 | CC(C)OC(=O)[C@H](C)NP(=O)(OC[C@H]1O[C@@H](n2ccc(=O)[nH]c2=O)[C@@]2(CCS2)[C@@H]1O)Oc1ccccc1 (stereo partly specified) | 26.1 µM | 1.17 µM | 22.4 µM | > 100 µM |  | 
2 | CCCCOC(=O)C(C)NP(=O)(OC[C@@]1(F)O[C@@H](n2ccc(=O)[nH]c2=O)[C@@]2(CCS2)[C@@H]1O)Oc1ccccc1 (single isomer, unassigned) | 29 µM | 1.92 µM | 2.87 µM | > 100 µM | 4.64 µM | 
3 | CC(C)OC(=O)[C@H](C)NP(=O)(OC[C@@]1(F)O[C@@H](n2ccc(=O)[nH]c2=O)[C@@]2(CCS2)[C@@H]1O)Oc1ccccc1 (stereo partly specified) | 28.3 µM | 2.58 µM | 3.25 µM | > 100 µM | 6.19 µM | AUClast [2]: 3050 ng·h/g; microsomal CLint [3]: > 347 µL/min/mg; AUClast [4]: 10000 ng·h/g; Tmax [5]: 2 h; half-life at 1 µM [6]: > 6 h; half-life at 1 µM [7]: 0.2 h; Cmax [8]: 637 ng/mg; half-life at 1 µM [9]: > 30 h; Cmax [10]: 2060 ng/mg; Tlast [11]: 7 h; microsomal CLint [12]: > 347 µL/min/mg; Tmax [13]: 2 h; remaining at 6 h, 1 µM [14]: 93%; half-life at 1 µM [15]: < 0.4 h; Tlast [16]: 7 h
4 | CC(C)OC(=O)C(C)NP(=O)(OC[C@@]1(N=[N+]=[N-])O[C@@H](n2ccc(=O)[nH]c2=O)[C@@]2(CCS2)[C@@H]1O)Oc1ccccc1 (single isomer, unassigned) | > 100 µM | 2.8 µM | > 100 µM | > 100 µM |  | 
5 | CC(C)OC(=O)[C@H](C)NP(=O)(OC[C@H]1O[C@@H](n2ccc(=O)[nH]c2=O)[C@@]2(CCO2)[C@@H]1O)Oc1ccccc1 (stereo partly specified) | > 50 µM | 21.4 µM | > 100 µM | > 100 µM |  | 
6 | CC(C)OC(=O)[C@H](C)NP(=O)(OC[C@@]1(F)O[C@@H](n2ccc(=O)[nH]c2=O)[C@@]2(CCO2)[C@@H]1O)Oc1ccccc1 (stereo partly specified) | > 100 µM | > 100 µM | > 100 µM | > 100 µM |  | 
7 | CC(C)OC(=O)[C@H](C)N[P@](=O)(OC[C@@]1(F)O[C@@H](n2ccc(=O)[nH]c2=O)[C@@]2(CCS2)[C@@H]1O)Oc1ccccc1 | 42 µM | 2.1 µM | 4.6 µM | > 100 µM | 5.93 µM | 
8 | CC(C)OC(=O)[C@H](C)N[P@@](=O)(OC[C@@]1(F)O[C@@H](n2ccc(=O)[nH]c2=O)[C@@]2(CCS2)[C@@H]1O)Oc1ccccc1 | 29.3 µM | 2.2 µM | 3.18 µM | > 100 µM | 5.82 µM | 
